What was measured:
LNCaP = assay: Inhibition of cells growth by colorimetric assay (SRB), LNCaP; assay type: cell-based; conditions: SRB, 48 hours exposure; for CC50 / GI50: Homo sapiens; for CC50: LNCaP, 48 h, read-out: LC50 LNCAP, LNCAP; for GI50 / TGI LNCAP: LNCAP; for GI50: read-out: GI50 LNCAP
In short: (§1)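 SRB read-out at 490 nm after 48 h drug exposure (10 to 10^−8 μg/ml) of cells plated at 5×10^3/well and attached 18 h in drug-free RPMI 1640/10% FBS. Triplicate means give GI, TGI (cytostatic) and LC (cytotoxic).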

A-549 = assay: Inhibition of cells growth by colorimetric assay (SRB), A-549; assay type: cell-based; conditions: SRB, 48 hours exposure; for GI50 / LC50 (concentration for 50% cell killing): Homo sapiens, A549, 48 h; for TGI A-549 / GI50: A-549; for GI50: read-out: GI50 A-549; for LC50 (concentration for 50% cell killing): read-out: LC50 A-549, A-549
In short: as §1

LoVo = assay: Inhibition of cells growth by colorimetric assay (SRB), LoVo; assay type: cell-based; conditions: SRB, 48 hours exposure; for GI50 / LC50 (concentration for 50% cell killing): Homo sapiens, LoVo, 48 h; for GI50 / TGI LOVO: LOVO; for GI50: read-out: GI50 LOVO; for LC50 (concentration for 50% cell killing): read-out: LC50 LOVO, LOVO
In short: as §1

HT-29 = assay: Inhibition of cells growth by colorimetric assay (SRB), HT-29; assay type: cell-based; conditions: SRB, 48 hours exposure; for GI50 / LC50 (concentration for 50% cell killing): Homo sapiens, HT-29, 48 h; for TGI HT-29 / GI50: HT-29; for GI50: read-out: GI50 HT-29; for LC50 (concentration for 50% cell killing): read-out: LC50 HT-29, HT-29
In short: as §1

IGROV-ET = assay: Inhibition of cells growth by colorimetric assay (SRB), IGROV-ET; assay type: cell-based; conditions: SRB, 48 hours exposure; for GI50 / CC50: Homo sapiens, 48 h; for GI50 / TGI IGROV-ET: IGROV-ET; for GI50: read-out: GI50 IGROV-ET; for CC50: read-out: LC50 IGROV-ET, IGROV-ET
In short: as §1

DU-145 = assay: Inhibition of cells growth by colorimetric assay (SRB), DU-145; assay type: cell-based; conditions: SRB, 48 hours exposure; for GI50 / CC50: Homo sapiens, DU-145, 48 h; for TGI DU-145 / GI50: DU-145; for GI50: read-out: GI50 DU-145; for CC50: read-out: LC50 DU-145, DU-145
In short: as §1

HMEC1 = assay: Inhibition of cells growth by colorimetric assay (SRB), HMEC1; assay type: cell-based; conditions: SRB, 48 hours exposure; for GI50 / LC50: Homo sapiens, HMEC-1, 48 h; for TGI HMEC-1 / GI50: HMEC-1; for GI50: read-out: GI50 HMEC-1; for LC50: read-out: LC50 HMEC-1, HMEC-1
In short: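 Compound in DMSO/EtOH/PBS vehicle was applied at 10 to 10^−8 μg/ml to attached cells (5×10^3/well, 18 h) for 48 h. Cells were then fixed with cold TCA and stained with 0.4% SRB in 1% acetic acid.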

SK-BR-3 = assay: Inhibition of cells growth by colorimetric assay (SRB), SK-BR-3; assay type: cell-based; conditions: SRB, 48 hours exposure; for GI50 / CC50: Homo sapiens, SK-BR-3, 48 h; for GI50 / TGI SK-BR3: SK-BR3; for GI50: read-out: GI50 SK-BR3; for CC50: read-out: LC50 SK-BR3, SK-BR3
In short: as §1

LoVo-Dox = assay: Inhibition of cells growth by colorimetric assay (SRB), LoVo-Dox; assay type: cell-based; conditions: SRB, 48 hours exposure; for GI50 / CC50: Homo sapiens, 48 h; for GI50 / TGI LOVO-DOX: LOVO-DOX; for GI50: read-out: GI50 LOVO-DOX; for CC50: read-out: LC50 LOVO-DOX, LOVO-DOX
In short: as §1

SK-MEL-28 = assay: Inhibition of cells growth by colorimetric assay (SRB), SK-MEL-28; assay type: cell-based; conditions: SRB, 48 hours exposure; for GI50 / CC50: Homo sapiens, SK-MEL-28, 48 h; for GI50 / TGI MEL-28: MEL-28; for GI50: read-out: GI50 MEL-28; for CC50: read-out: LC50 MEL-28, MEL-28
In short: as §1

SK-OV-3 = assay: Inhibition of cells growth by colorimetric assay (SRB), SK-OV-3; assay type: cell-based; conditions: SRB, 48 hours exposure; for GI50 / LC50: Homo sapiens, SK-OV-3, 48 h; for GI50 / TGI SK-OV3: SK-OV3; for GI50: read-out: GI50 SK-OV3; for LC50: read-out: LC50 SK-OV3, SK-OV3
In short: as §1

PANC-1 = assay: Inhibition of cells growth by colorimetric assay (SRB), PANC-1; assay type: cell-based; conditions: SRB, 48 hours exposure; for GI50 / LC50 (concentration for 50% net cell kill): Homo sapiens, PANC-1, 48 h; for GI50 / TGI PANC-1: PANC-1; for GI50: read-out: GI50 PANC-1; for LC50 (concentration for 50% net cell kill): read-out: LC50 PANC-1, PANC-1
In short: as §1

IGROV-1 = assay: Inhibition of cells growth by colorimetric assay (SRB), IGROV-1; assay type: cell-based; conditions: SRB, 48 hours exposure; for GI50 / CC50: Homo sapiens, IGROV-1, 48 h; for GI50 / TGI IGROV: IGROV; for GI50: read-out: GI50 IGROV; for CC50: read-out: LC50 IGROV, IGROV
In short: as §1

K-562 = assay: Inhibition of cells growth by colorimetric assay (SRB), K-562; assay type: cell-based; conditions: SRB, 48 hours exposure; for GI50 / LC50 (50% cell killing): Homo sapiens, K562, 48 h; for GI50 / TGI K-562: K-562; for GI50: read-out: GI50 K-562; for LC50 (50% cell killing): read-out: LC50 K-562, K-562
In short: as §1

From the text for Heart: (§2) Toxicity was asssessed by the methods reported in Toxicology in Vitro, 15 (2001) 571-577, J. Luber Narod et al.: “Evaluation of the use of in vitro methodolodies as tools for screening new compounds for potential in vivo toxicity”.
From the text for Kidney: as §2
From the text for Liver: as §2
From the text for Myelo: as §2
From the text for Skeletal: as §2

COc1cc2c(cc1OC)[C@@]1(CS[C@@H]3c4c(OC(C)=O)c(C)c5c(c4[C@H](COC1=O)N1C3[C@H]3c4c(cc(C)c(OC)c4O)C[C@@H]([C@@H]1O)N3C)OCO5)NCC2 (stereo partly shown) [Compound 67]
CC50 (LNCaP): 0.844 nM | GI50 (LNCaP): 0.307 nM | TGI LNCAP (LNCaP): 5.09E-10 | TGI A-549 (A-549): 3.63E-09 | GI50 (A-549): 1.31 nM | LC50 (concentration for 50% cell killing) (A-549): 10.1 nM | GI50 (LoVo): 0.602 nM | LC50 (concentration for 50% cell killing) (LoVo): 17.7 nM | TGI LOVO (LoVo): 3.34E-09 | Toxicity Data Myelo (Myelo): 3.27E-08 | Toxicity Data Kidney (Kidney): 5.36E-08 | Toxicity Data Heart (Heart): 4.54E-08 | TGI HT-29 (HT-29): 5.59E-09 | GI50 (HT-29): 0.741 nM | LC50 (concentration for 50% cell killing) (HT-29): 12900 nM | GI50 (IGROV-ET): 1.88 nM | CC50 (IGROV-ET): 4960 nM | TGI IGROV-ET (IGROV-ET): 7.02E-09 | TGI DU-145 (DU-145): 8.61E-10 | GI50 (DU-145): 0.433 nM | CC50 (DU-145): 4470 nM | Toxicity Data Skeletal (Skeletal): 2.37E-08 | TGI HMEC-1 (HMEC1): 8.49E-09 | GI50 (HMEC1): 1.02 nM | LC50 (HMEC1): 5050 nM | GI50 (SK-BR-3): 0.394 nM | CC50 (SK-BR-3): 7.48 nM | TGI SK-BR3 (SK-BR-3): 1.11E-09 | GI50 (LoVo-Dox): 4.21 nM | CC50 (LoVo-Dox): 12800 nM | TGI LOVO-DOX (LoVo-Dox): 3.65E-08 | GI50 (SK-MEL-28): 0.411 nM | CC50 (SK-MEL-28): 6.24 nM | TGI MEL-28 (SK-MEL-28): 9.90E-10 | GI50 (SK-OV-3): 0.385 nM | LC50 (SK-OV-3): 7940 nM | TGI SK-OV3 (SK-OV-3): 8.52E-10 | GI50 (PANC-1): 0.443 nM | LC50 (concentration for 50% net cell kill) (PANC-1): 2670 nM | TGI PANC-1 (PANC-1): 1.09E-09 | GI50 (IGROV-1): 0.266 nM | CC50 (IGROV-1): 1.21 nM | TGI IGROV (IGROV-1): 5.67E-10 | GI50 (K-562): 0.118 nM | LC50 (50% cell killing) (K-562): 0.8 nM | TGI K-562 (K-562): 2.85E-10 | Toxicity Data Liver (Liver): 3.20E-08

COc1cc2c(cc1OC(=O)c1cc3ccccc3oc1=O)CCN[C@]21CS[C@@H]2c3c(OC(C)=O)c(C)c4c(c3[C@H](COC1=O)N1C2[C@H]2c3c(cc(C)c(OC)c3O)C[C@@H]([C@@H]1O)N2C)OCO4 (stereo partly shown) [Compound 76]
CC50 (LNCaP): 0.891 nM | GI50 (LNCaP): 0.217 nM | TGI LNCAP (LNCaP): 4.40E-10 | TGI A-549 (A-549): 4.31E-09 | GI50 (A-549): 2.06 nM | LC50 (concentration for 50% cell killing) (A-549): 9.07 nM | GI50 (LoVo): 1.03 nM | LC50 (concentration for 50% cell killing) (LoVo): 10.8 nM | TGI LOVO (LoVo): 3.30E-09 | Toxicity Data Myelo (Myelo): 8.19E-09 | Toxicity Data Kidney (Kidney): 3.20E-09 | Toxicity Data Heart (Heart): 1.62E-08 | TGI HT-29 (HT-29): 6.18E-09 | GI50 (HT-29): 1.28 nM | LC50 (concentration for 50% cell killing) (HT-29): 4520 nM | GI50 (IGROV-ET): 1.52 nM | CC50 (IGROV-ET): 21 nM | TGI IGROV-ET (IGROV-ET): 3.92E-09 | TGI DU-145 (DU-145): 6.16E-10 | GI50 (DU-145): 0.249 nM | CC50 (DU-145): 2140 nM | Toxicity Data Skeletal (Skeletal): 2.15E-09 | TGI HMEC-1 (HMEC1): 6.55E-09 | GI50 (HMEC1): 1.83 nM | LC50 (HMEC1): 186 nM | GI50 (SK-BR-3): 0.337 nM | CC50 (SK-BR-3): 6.17 nM | TGI SK-BR3 (SK-BR-3): 1.24E-09 | GI50 (LoVo-Dox): 13.9 nM | CC50 (LoVo-Dox): 107 nM | TGI LOVO-DOX (LoVo-Dox): 4.70E-08 | GI50 (SK-MEL-28): 0.622 nM | CC50 (SK-MEL-28): 8.28 nM | TGI MEL-28 (SK-MEL-28): 2.51E-09 | GI50 (SK-OV-3): 0.293 nM | LC50 (SK-OV-3): 4810 nM | TGI SK-OV3 (SK-OV-3): 8.93E-10 | GI50 (PANC-1): 1.22 nM | LC50 (concentration for 50% net cell kill) (PANC-1): 44.1 nM | TGI PANC-1 (PANC-1): 4.68E-09 | GI50 (IGROV-1): 0.192 nM | CC50 (IGROV-1): 1.66 nM | TGI IGROV (IGROV-1): 4.56E-10 | GI50 (K-562): 0.00278 nM | LC50 (50% cell killing) (K-562): 0.351 nM | TGI K-562 (K-562): 3.78E-11 | Toxicity Data Liver (Liver): 1.35E-08

From patent US7759345B2, “Antitumoral derivatives of ET-743” (priority 2001, dated 2010)
